Results from ChEMBL document CHEMBL1149166, “Antimycobacterial agents. 1. Thio analogues of purine” (J Med Chem, 2004).
In brackets after ≈: the same amount, converted by molar mass.

Key:
[1] = tested on: Mycobacterium tuberculosis; test: Percent inhibitory activity against Mycobacterium tuberculosis H37Rv Strain at 6.25 ug/mL; type: functional
[2] = tested on: Mycobacterium tuberculosis; test: Inhibitory activity against growth of Mycobacterium tuberculosis H37Rv Strain; type: functional
[3] = tested on: Mycobacterium tuberculosis; test: Inhibitory activity against growth of Mycobacterium tuberculosis (Mtb) H37Ra Strain; Activity showed partial growth inhibition representing an estimated 50% or more; type: functional
[4] = tested on: Mycobacterium tuberculosis; test: Lowest concentration of compound against Mtb H37Ra strain required to inhibit the growth completely; type: functional
[5] = tested on: Mycobacterium tuberculosis; test: Inhibitory activity against growth of Mycobacterium tuberculosis (Mtb) H37Ra Strain; type: functional
[6] = tested on: Mycobacterium tuberculosis; test: Percent inhibitory activity against Mycobacterium tuberculosis (Mtb) H37Rv Strain at 12.25 ug/mL; type: functional
[7] = tested on: Mycobacterium tuberculosis; test: Lowest concentration of compound against Mtb H37Ra strain required to inhibit the growth completely; activity range is 2-4; type: functional
[8] = tested on: Mycobacterium tuberculosis; test: Concentration effecting […] reduction in the viable cell counts of mouse bone marrow macrophage monolayers containing Mtb Erdman after 7 days compared to controls; type: functional, organism-based; settings: 168 h
[9] = Selective index is […]; type: functional

| SMILES | inhibition at 6.25 µg/mL [1] [%] | MIC90 [2] [µg/mL] | MIC [5] [µg/mL] | other results |
| --- | --- | --- | --- | --- |
| CCOC(=O)Cn1cnc2c(Sc3cccc(C)c3)ncnc21 | 0 | > 6.25 |  | MIC [3]: > 12.8 µg/mL |
| CCOC(=O)Cn1cnc2c(SCc3cc(Cl)ccc3F)nc(O)nc21 | 17 | > 6.25 |  | MIC [4]: 4 µg/mL (≈ 10.1 µM) |
| c1ccc2nc(Sc3[nH]cnc4ncnc3-4)ccc2c1 |  | > 12.5 | > 12.8 | inhibition at 12.25 µg/mL [6]: 69% |
| CC[C@@H](CO)NCCN[C@@H](CC)CO [ETHAMBUTOL] |  |  |  | MIC [7]: 4 µg/mL (≈ 19.6 µM) |
| CCOC(=O)Cn1cnc2c(Sc3ccc4ccccc4c3)ncnc21 | 100 | > 6.25 |  | MIC [3]: > 12.8 µg/mL |
| Cc1cccc(Sc2[nH]cnc3ncnc2-3)c1 |  | > 12.5 | > 12.8 | inhibition at 12.25 µg/mL [6]: 99% |
| Oc1nc(SCc2ccccc2F)c2[nH]cnc2n1 | 50 | > 6.25 |  | MIC [4]: > 8 µg/mL |
| CCCCCCCCCCSc1ncnc2c1ncn2CC(N)=O | 0 | > 6.25 | 32 (≈ 91.6 µM) |  |
| Clc1ccc(Sc2[nH]cnc3ncnc2-3)cc1 |  | > 12.5 | > 12.8 | inhibition at 12.25 µg/mL [6]: 78% |
| CCCCCCCCCCSc1[nH]c(Cl)nc2ncnc1-2 | 86 | > 6.25 | > 12.8 |  |
| CCOC(=O)Cn1cnc2c(SCc3cccc([N+](=O)[O-])c3C)nc(O)nc21 | 0 | > 6.25 | 16 (≈ 39.7 µM) |  |
| c1ccc(CSc2ncnc3[nH]cnc23)cc1 |  | > 12.5 | > 12.8 | inhibition at 12.25 µg/mL [6]: 52% |
| CCOC(=O)Cn1cnc2c(SCc3ccccc3F)nc(O)nc21 | 22 | > 6.25 |  | MIC [4]: 4 µg/mL (≈ 11 µM) |
| Cc1ccc(Sc2[nH]cnc3ncnc2-3)cc1 |  | > 12.5 | > 12.8 | inhibition at 12.25 µg/mL [6]: 65% |
| CCOC(=O)Cn1cnc2c(SCc3ccccc3)nc(O)nc21 | 25 | > 6.25 |  | MIC [4]: 4 µg/mL (≈ 11.6 µM) |
| CCCCCCCCCCSc1ncnc2c1ncn2CC(=O)Oc1ccccc1 | 0 | > 6.25 | > 12.8 |  |
| Oc1nc(SCc2ccccc2Cl)c2[nH]cnc2n1 | 62 | > 6.25 | > 16 |  |

| SMILES | inhibition at 6.25 µg/mL [1] [%] | MIC90 [2] [µg/mL] | MIC [5] [µg/mL] | other results |
| --- | --- | --- | --- | --- |
| CCCCCCCCCCCSc1[nH]cnc2ncnc1-2 | 98 | 3.13 (≈ 10.2 µM) | > 12.8 | EC50 [8]: 2.54 µg/mL (≈ 8.29 µM) |
| Oc1nc(SCc2ccccc2)c2[nH]cnc2n1 | 94 | > 6.25 | > 12.8 |  |
| CCOC(=O)Cn1cnc2c(Sc3ccc(Cl)cc3)ncnc21 | 99 | > 6.25 | 32 (≈ 91.7 µM) |  |
| COc1cccc(CSc2[nH]c(O)nc3ncnc2-3)c1 | 59 | > 6.25 | > 16 |  |
| Oc1nc(SCc2ccc(F)cc2)c2[nH]cnc2n1 | 52 | > 6.25 |  | MIC [3]: > 12.8 µg/mL |
| Clc1nc(Sc2cccc3ccccc23)c2[nH]cnc2n1 | 56 | > 6.25 | > 12.8 |  |
| CCCCCCCCCCCCSc1ncnc2c1ncn2CC(=O)OCC | 98 | 0.78 (≈ 1.92 µM) |  | MIC [4]: 8 µg/mL (≈ 19.7 µM); SI [9]: > 12.8 |
| O=[N+]([O-])c1ccccc1CSc1nc(O)nc2nc[nH]c12 | 61 | > 6.25 | > 16 |  |
| CCOC(=O)Cn1cnc2c(Sc3ccc(C)cc3)ncnc21 | 99 | > 6.25 | > 12.8 |  |
| Cc1ccccc1Sc1[nH]c(Cl)nc2ncnc1-2 | 72 | > 6.25 | > 12.8 |  |
| c1ccc2cc(Sc3[nH]cnc4ncnc3-4)ccc2c1 |  | > 12.5 |  | MIC [3]: > 12.8 µg/mL; inhibition at 12.25 µg/mL [6]: 69% |
| Oc1nc(SCc2ccc(Cl)cc2)c2[nH]cnc2n1 | 55 | > 6.25 |  | MIC [3]: > 12.8 µg/mL |
| Oc1nc(SCc2ccc(F)cc2C(F)(F)F)c2[nH]cnc2n1 | 50 |  | > 16 |  |
| CCCCCCCCCCSc1ncnc2c1ncn2CC(=O)OC(C)(C)C | 99 | 3.13 (≈ 7.7 µM) | 16 (≈ 39.4 µM) | SI [9]: > 3.19 |
| CCCCCCCCCCSc1ncnc2c1ncn2CC(=O)OCC | 100 | 1.56 (≈ 4.12 µM) |  | MIC [3]: > 12.8 µg/mL; SI [9]: > 40 |
| Clc1nc(Sc2ncccn2)c2[nH]cnc2n1 | 53 | > 6.25 | > 12.8 |  |
| CCCCCCCCCCSc1ncnc2c1ncn2CC(=O)OCc1ccccc1 | 0 | > 6.25 | > 12.8 |  |
